Consider one molecule from US11214561B2, “Histone methyltransferase EZH2 inhibitor, preparation method and pharmaceutical use thereof” (ANCUREALL PHARMACEUTICAL (SHANGHAI) CO., LTD., priority 2017, dated 2022).

For one data set, the system named is Pfeiffer (EZH2 A677G). As to the kind of experiment: In vitro 50% growth inhibition (GI50), MTT/CCK8, Pfeiffer cells. It is filed as cell-based, Human. To be noted: Homo sapiens, Pfeiffer, 240 h; Drug treatment for 10 days.
Data set [1] concerns EZH2 A677G mutant positive-expressing tumor cell line Pfeiffer. The data set can be described thus: In vivo growth inhibition, Pfeiffer subcutaneous transplantation model. To be noted: for Tumor volume: 200 mg/kg orally once a day. From the text: Test Example 2 Determination of the in vivo growth inhibition activity of the present compounds on EZH2 A677G mutant positive-expressing tumor cell line Pfeiffer NOD/SCID mice were subcutaneously inoculated with human diffuse large cell B lymphoma lymphocyte Pfeiffer (ATCC) expressing EZH2 A677G mutant protein to establish a subcutaneous transplantation model of human B cell lymphoma.
Experimental animals: NOD/SCID mice, female, 9 weeks (weeks of age when tumor cell inoculation), average weight 20.3 g, 18 mice, were purchased from Shanghai Lingchang biotechnology co., Ltd. with animal certificate No.: 2002007656. The breeding environment was SPF grade.
Test samples: the present example compounds 34 (purity: 99.03%) and 35 (purity: 97.6%), solid powder, preserved at −20° C.
Pfeiffer cells were cultured in RPM1640 medium containing 10% of fetal bovine serum. Log-phase Pfeiffer cells were collected and resuspended with PBS to 1×10^8 cells per ml for subcutaneous inoculation in NOD/SCID mice.
All the mice were treated with Co60 irradiation at a dose of 200 rad the day before the inoculation, and 1×10^7 Pfeiffer cells were then subcutaneously inoculated at the right back, and the cells were resuspended in 1:1 PBS and Matrigel (0.1 ml/mouse). When the average tumor volume was 134 mm^3, the mice were randomly grouped according to tumor size. Tumor volume was calculated as: long diameter×short diameter^2/2. The day of tumor cells inoculation was defined as day 0. The test was divided into solvent control group and drug treatment group (compound 34 group and compound 35 group). 6 mice for each group were given orally once a day for a total of 4 weeks. Efficacy was assessed based on relative tumor growth inhibition value (TGI), and safety was assessed based on animal weight change and mortality.
Preparation of test samples: compounds 34 or 35 was weighed and mixed with ultrapure water, and methanesulfonic acid was added for clarification. The PH value was about 1.64 at this moment. 4M NaOH was then added to adjust the PH to 3.5 and bring to volume by ultrapure water, the final concentrations was 20 mg/ml. Determination standard: TGI (%): […].
T/C % refers to the relative value-added rate of tumor, that is, the percentage value of relative tumor volume or tumor weight for the treatment group and the control group at a certain point. T and C were the relative tumor volumes (RTV) of the treatment group and the control group at a specific point, respectively. The calculation formula is as follows: T/C%=TRTV/CRTV*100% TRTV: mean RTV of the treatment group; CRTV: mean RTV of solvent control group; RTV=Vt/V0, V0 was the tumor volume of the animal when grouping, Vt was the tumor volume of the animal after treatment. Statistical analysis: all test results were defined as mean tumor volume±SEM (mean standard error). Tumor volume data of 27 days after the start of treatment were selected for statistical analysis among different groups, and independent sample T test was used to compare whether there were significant differences in tumor volume between the treatment group and the control group. All data were analyzed using SPSS 18.0. P<0.05 was considered as significant difference.

[2] abbreviates: 200 mg/kg, 27th day after the start of treatment.
The mark [3] stands for this setting: 200 mg/kg, 27 days after the start of treatment.

With `C=CC(=O)N1CCC(N(CC)c2cc(-c3ccc(CN4CCCCC4)cc3)cc(C(=O)NCc3c(C)cc(C)[nH]c3=O)c2C)CC1` [Example 34, N-(4,6-dimethyl-2-oxo-1,2-dihydro-pyridin-3-ylmethyl)-5-[(1-acryloyl-piperidin-4-yl)-ethyl-amino]-4-methyl-4′-(piperidin-1-ylmethyl)-[1,1′-biphenyl]-3-carboxamide], the GI50 (commonly the concentration that inhibits growth by half) with Pfeiffer (EZH2 A677G) fell in the range of 1 to 10 nM. Besides, the “body weight during the treatment” value in data set [1] (200 mg/kg dose) was “maintained a stable body weight”. Besides, in data set [1] (200 mg/kg dose), the tolerability entry is “well tolerated”. The Tumor volume in data set [1] (Day 0 after the start of treatment) turned out to be 135 ± 10 mm^3; in data set [1] (Day 3 after the start of treatment), 298 ± 25 mm^3; in data set [1] (Day 7 after the start of treatment), 439 ± 48 mm^3; in data set [1] (Day 10 after the start of treatment) it was 441 ± 56 mm^3; in data set [1] (Day 14 after the start of treatment) it was 381 ± 39 mm^3; in data set [1] (Day 17 after the start of treatment), 472 ± 100 mm^3. The Tumor volume is 477 ± 158 mm^3 in data set [1] (Day 21 after the start of treatment); 570 ± 154 mm^3 in data set [1] (Day 24 after the start of treatment); 538 ± 199 mm^3 in data set [1] (Day 27 after the start of treatment, listed as Compound 34); 538 mm^3 in data set [1] (Day 27 after the start of treatment, listed as compound 34). In addition, the “RTV (x ± S), relative tumor volume” value in data set [1] (setting [2]) stood at 4.7 ± 2.3. Besides, in data set [1] (setting [2]), the “T/C (%), relative tumor volume” value was 32.9%. In data set [1] (setting [2]), the “TGI (%), relative tumor volume” value is recorded as 67.1%. In addition, the “T/C (%), tumor weight” value in data set [1] (setting [3]) is listed as 23.4%. In addition, the TGI, tumor weight in data set [1] (setting [3]) is 76.6%. Moreover, in data set [1] (setting [3]), the “Tumor weight (mg) (x ± S)” value is given as 264 ± 113 mg. In addition, in data set [1] (200 mg/kg, versus solvent control group), the “anti-tumor effect, in words” value is “significant anti-tumor effects”.
